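Grown in 96-well plates, cells were treated for 48 hours with each compound at five concentrations. Insufficient inhibition: endpoint recorded as highest concentration tested. GI50 marks 50% less growth.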 Active and inactive are the calls of the source. Rule as the data show it: active = GI50 up to about 1.1 µM and inactive = higher.
Legend:
Test in all cases: NCI anticancer screen, dose series, 48 h
[1] = tested on: 786-0
[2] = tested on: A498
[3] = tested on: A549
[4] = tested on: ACHN
[5] = tested on: BT-549
[6] = tested on: CAKI-1
[7] = tested on: CCRF-CEM
[8] = tested on: COLO 205
[9] = tested on: DLD-1
[10] = tested on: DMS-114
[11] = tested on: DMS-273
[12] = tested on: DU-145
[13] = tested on: EKVX
[14] = tested on: HCC 2998
[15] = tested on: HCT-116
[16] = tested on: HCT-15
[17] = tested on: HL-60
[18] = tested on: HOP-18
[19] = tested on: HOP-62
[20] = tested on: HOP-92
[21] = tested on: HT-29
[22] = tested on: Hs-578T
[23] = tested on: IGROV-1
[24] = tested on: K562
[25] = tested on: KM-20L2
[26] = tested on: KM12
[27] = tested on: LOX IMVI
[28] = tested on: M14
[29] = tested on: M19-MEL
[30] = tested on: MCF7
[31] = tested on: MDA-MB-231
[32] = tested on: MDA-MB-435
[33] = tested on: MDA-N
[34] = tested on: MOLT-4
[35] = tested on: Malme-3M
[36] = tested on: NCI-H226
[37] = tested on: NCI-H23
[38] = tested on: NCI-H460
[39] = tested on: NCI-H522
[40] = tested on: OVCAR-3
[41] = tested on: OVCAR-4
[42] = tested on: OVCAR-5
[43] = tested on: OVCAR-8
[44] = tested on: PC-3
[45] = tested on: RPMI-8226
[46] = tested on: RXF 393
[47] = tested on: RXF 631
[48] = tested on: SF-268
[49] = tested on: SF-295
[50] = tested on: SF-539
[51] = tested on: SK-MEL-28
[52] = tested on: SK-MEL-2
[53] = tested on: SK-MEL-5
[54] = tested on: SK-OV-3
[55] = tested on: SN12C
[56] = tested on: SNB-19
[57] = tested on: SNB-75
[58] = tested on: SNB-78
[59] = tested on: SR
[60] = tested on: SW-620
[61] = tested on: TK-10
[62] = tested on: U-251
[63] = tested on: UACC-257
[64] = tested on: UACC-62
[65] = tested on: UO-31
[66] = tested on: XF498

With `O=C(CC1(O)C(=O)Nc2c(Cl)cc(Cl)cc21)c1ccc(Br)cc1Br` (stereo unspecified) the GI50 [1] was 11.3 µM (inactive), the GI50 [2] was 22.1 µM (inactive) and the GI50 [3] was 22.2 µM (inactive). For the same molecule, the GI50 [4] was 14.1 µM (inactive), the GI50 [5] was 10.5 µM (inactive) and the GI50 [6] was 4.24 µM (inactive). For the same molecule, the GI50 [7] was 0.474 µM (active), the GI50 [8] was 7.21 µM (inactive) and the GI50 [9] was 5.48 µM (inactive). For the same molecule, the GI50 [10] was 6.56 µM (inactive), the GI50 [11] was 7.05 µM (inactive) and the GI50 [12] was 16.3 µM (inactive). For the same molecule, the GI50 [13] was 19 µM (inactive), the GI50 [14] was 16.7 µM (inactive) and the GI50 [15] was 4.31 µM (inactive). The GI50 [16] was 8.57 µM, the GI50 [17] was 1.04 µM (active) and the GI50 [18] was 14.4 µM (inactive). The GI50 [19] was 20.8 µM (inactive), the GI50 [20] was 2.4 µM (inactive) and the GI50 [21] was 17.7 µM (inactive). For the same molecule, the GI50 [22] was 0.0646 µM (active), the GI50 [23] was 16.6 µM (inactive) and the GI50 [24] was 0.946 µM (active). For the same molecule, the GI50 [25] was 18.6 µM (inactive), the GI50 [26] was 12.9 µM (inactive) and the GI50 [27] was 5.19 µM (inactive). For the same molecule, the GI50 [28] was 5.96 µM (inactive), the GI50 [29] was 9.04 µM (inactive) and the GI50 [30] was 13.2 µM (inactive). For the same molecule, the GI50 [31] was 14.7 µM (inactive), the GI50 [32] was 12.8 µM (inactive) and the GI50 [33] was 7.57 µM (inactive). The GI50 [34] was 1.32 µM (inactive), the GI50 [35] was 11.5 µM (inactive) and the GI50 [36] was 19 µM (inactive). For the same molecule, the GI50 [37] was 8.26 µM (inactive), the GI50 [38] was 16 µM (inactive) and the GI50 [39] was 2.89 µM (inactive). For the same molecule, the GI50 [40] was 18.7 µM (inactive), the GI50 [41] was 12.2 µM (inactive) and the GI50 [42] was 17.7 µM (inactive). For the same molecule, the GI50 [43] was 7.98 µM (inactive), the GI50 [44] was 16.9 µM (inactive) and the GI50 [45] was 2.75 µM (inactive). For the same molecule, the GI50 [46] was 11.7 µM (inactive), the GI50 [47] was 4.66 µM (inactive) and the GI50 [48] was 8.17 µM (inactive). For the same molecule, the GI50 [49] was 20 µM (inactive), the GI50 [50] was 14.6 µM (inactive) and the GI50 [51] was 14.3 µM (inactive). The GI50 [52] was 15.2 µM (inactive), the GI50 [53] was 7.4 µM (inactive) and the GI50 [54] was 21.5 µM (inactive). For the same molecule, the GI50 [55] was 13.1 µM (inactive), the GI50 [56] was 17.2 µM (inactive) and the GI50 [57] was 18.1 µM (inactive). For the same molecule, the GI50 [58] was 22.5 µM (inactive), the GI50 [59] was 1.56 µM (inactive) and the GI50 [60] was 3.3 µM (inactive). For the same molecule, the GI50 [61] was 18.1 µM (inactive), the GI50 [62] was 13.1 µM (inactive) and the GI50 [63] was 10.7 µM (inactive). The GI50 [64] was 12.9 µM (inactive), the GI50 [65] was 16 µM (inactive) and the GI50 [66] was 11.6 µM (inactive).
